The record followed here is patent publication US11505543B2, “4-oxo-3,4-dihydroquinazoline compounds as inhibitors of human immunodeficiency virus replication” (VIIV HEALTHCARE UK (NO.5) LIMITED, priority 2018, dated 2022).

As a reminder, the CC50 is the concentration giving 50% cytotoxicity. High values mean lower toxicity to the cells, low ones greater toxicity to the cells. What is called EC50 is the concentration giving half of the maximal effect.

The nature of data set [1]: Compound cytotoxicity, XTT-based colorimetric assay. The note with it: human, uninfected MT2 cells, day 4, XTT. It is filed as cell-based. How it is done: Compound cytotoxicity and the corresponding CC50 values were determined using the same protocol as described in the antiviral assay except that uninfected cells were used. Cytotoxicity was assessed on day 4 in uninfected MT2 cells by using a XTT (2,3-bis[2-Methoxy-4-nitro-5-sulfophenyl]-2H-tetrazolium-5-carboxyanilide inner salt)-based colorimetric assay (Sigma-Aldrich, St Louis, Mo.).
(Tetrazolium dyes change colour on reduction, which living cells bring about.)

The subject of data set [2] is recombinant NL4-3 virus (nef section replaced with Renilla luciferase gene) in MT-2 cells. Put plainly: HIV cell culture assay (antiviral activity, luciferase readout). The settings on record: Renilla, NL43, MT-2 cells infected for 4-5 days with recombinant NL4-3 Renilla luciferase virus, serial dilutions of compound. It is filed as cell-based. How it is done:
HIV cell culture assay—MT-2 cells, 293T cells and the proviral DNA clone of NL4-3 virus were obtained from the NIH AIDS Research and Reference Reagent Program. MT-2 cells were propagated in RPMI 1640 media supplemented with 10% heat inactivated fetal bovine serum (FBS), 100 μg/ml penicillin G and up to 100 units/mL streptomycin. The 293T cells were propagated in DMEM media supplemented with 10% heat inactivated FBS, 100 μg/mL penicillin G and 100 μg/mL streptomycin. A recombinant NL4-3 proviral clone, in which a section of the nef gene was replaced with the Renilla luciferase gene, was used to make the reference virus used in these studies. The recombinant virus was prepared through transfection of the recombinant NL4-3 proviral clone into 293T cells using Transit-293 Transfection Reagent from Mirus Bio LLC (Madison, Wis.). Supernatent was harvested after 2-3 days and the amount of virus present was titered in MT-2 cells using luciferase enzyme activity as a marker by measuring luciferase enzyme activity. Luciferase was quantitated using the EnduRen Live Cell Substrate from Promega (Madison, Wis.). Antiviral activities of compounds toward the recombinant virus were quantified by measuring luciferase activity in MT-2 cells infected for 4-5 days with the recombinant virus in the presence of serial dilutions of the compound.
The 50% effective concentration (EC50) was calculated by using the exponential form of the median effect equation where (Fa)=1/[1+(ED50/drug conc.)^m] (Johnson VA, Byington RT. Infectivity Assay. In Techniques in HIV Research. ed. Aldovini A, Walker BD. 71-76. New York: Stockton Press. 1990). Curve fitting and analysis were performed with ActivityBase XE Runner software version 9.1.0.4 using model 203 (ID Business Solutions, LTD, Guildford, UK).

`Cn1nc(NS(C)(=O)=O)c2c(Cl)ccc(-n3c([C@H](Cc4cc(F)cc(F)c4)NC(=O)Cn4nc(C(F)F)c5c4C(F)(F)[C@@H]4C[C@H]54)nc4cc(-c5cccc(C(=O)O)c5)ccc4c3=O)c21` (atropisomer, axis not shown; (aR)) [Example 17, 3-(3-(4-chloro-1-methyl-3-(methylsulfonamido)-1H-indazol-7-yl)-2-((S)-1-(2-((3bS,4aR)-3-(difluoromethyl)-5,5-difluoro-3b,4,4a,5-tetrahydro-1H-cyclopropa[3,4]cyclopenta[1,2-c]pyrazol-1-yl)acetamido)-2-(3,5-difluorophenyl)ethyl)-4-oxo-3,4-dihydroquinazolin-7-yl)benzoic acid] returned a CC50 at 4 day in data set [1] above 1000 nM. For the same compound, the 50% effective concentration (EC50) in data set [2] amounted to 9.7 nM.

For the compound `O=C(Cn1nc(C(F)F)c2c1C(F)(F)[C@@H]1C[C@H]21)N[C@@H](Cc1cc(F)cc(F)c1)c1nc2cc(-c3cccnc3)ccc2c(=O)n1-c1ccc(S(=O)(=O)N2CCOCC2)cc1` [Example 24, 2-((3bS,4aR)-3-(difluoromethyl)-5,5-difluoro-3b,4,4a,5-tetrahydro-1H-cyclopropa[3,4]cyclopenta[1,2-c]pyrazol-1-yl)-N-((S)-2-(3,5-difluorophenyl)-1-(3-(4-(morpholinosulfonyl)phenyl)-4-oxo-7-(pyridin-3-yl)-3,4-dihydroquinazolin-2-yl)ethyl)acetamide], the CC50 at 4 day in data set [1] was above 1000 nM. Further, the half-maximal effective concentration (EC50) in data set [2] was 4.3 nM.

As to `Cn1nc(NS(C)(=O)=O)c2c(Cl)ccc(-n3c([C@H](Cc4cc(F)cc(F)c4)NC(=O)Cn4nc(C(F)F)c5c4C(F)(F)[C@@H]4C[C@H]54)nc4cc(-c5ncccn5)ccc4c3=O)c21` (atropisomer, axis not shown; (aR)) [Example 40, N-((S)-1-(3-(4-chloro-1-methyl-3-(methylsulfonamido)-1H-indazol-7-yl)-4-oxo-7-(pyrimidin-2-yl)-3,4-dihydroquinazolin-2-yl)-2-(3,5-difluorophenyl)ethyl)-2-((3bS,4aR)-3-(difluoromethyl)-5,5-difluoro-3b,4,4a,5-tetrahydro-1H-cyclopropa[3,4]cyclopenta[1,2-c]pyrazol-1-yl)acetamide], the cytotoxic concentration (CC50) at 4 day in data set [1] is above 1000 nM. Besides, in data set [2], the EC50 worked out at 0.025 nM.

As for `O=C(Cn1ccc(C2CC2)n1)N[C@@H](Cc1cc(F)cc(F)c1)c1nc2cc(-c3ccc(-c4ccccc4)cc3)ccc2c(=O)n1-c1ccc(S(=O)(=O)N2CCOCC2)cc1` [Example 148, (S)-N-(1-(7-([1,1′-biphenyl]-4-yl)-3-(4-(morpholinosulfonyl)phenyl)-4-oxo-3,4-dihydroquinazolin-2-yl)-2-(3,5-difluorophenyl)ethyl)-2-(3-cyclopropyl-1H-pyrazol-1-yl)acetamide], in data set [1], the 50% cytotoxic concentration (CC50) at 4 day is above 500 nM. Besides, the EC50 in data set [2] was 71 nM.

With `Cn1nc(NS(C)(=O)=O)c2c(Cl)ccc(-n3c([C@H](Cc4cc(F)cc(F)c4)NC(=O)Cn4nc(C(F)F)c5c4C(F)(F)[C@@H]4C[C@H]54)nc4cc(-c5cccc(F)c5)ccc4c3=O)c21` (atropisomer, axis not shown; (aR)) [Example 30, N-((S)-1-(3-(4-chloro-1-methyl-3-(methylsulfonamido)-1H-indazol-7-yl)-7-(3-fluorophenyl)-4-oxo-3,4-dihydroquinazolin-2-yl)-2-(3,5-difluorophenyl)ethyl)-2-((3bS,4aR)-3-(difluoromethyl)-5,5-difluoro-3b,4,4a,5-tetrahydro-1H-cyclopropa[3,4]cyclopenta[1,2-c]pyrazol-1-yl)acetamide], in data set [1], the cytotoxic concentration (CC50) at 4 day is above 1000 nM. Further, in data set [2], the concentration for a half-maximal effect (EC50) came to 0.88 nM.

As for `COc1ccc(-c2ccc3c(=O)n(-c4ccc(Cl)c5c(NS(C)(=O)=O)nn(C)c45)c([C@H](Cc4cc(F)cc(F)c4)NC(=O)Cn4nc(C(F)F)c5c4C(F)(F)[C@@H]4C[C@H]54)nc3c2)cn1` (atropisomer, axis not shown; (aR)) [Example 58, N-((S)-1-(3-(4-chloro-1-methyl-3-(methylsulfonamido)-1H-indazol-7-yl)-7-(6-methoxypyridin-3-yl)-4-oxo-3,4-dihydroquinazolin-2-yl)-2-(3,5-difluorophenyl)ethyl)-2-((3bS,4aR)-3-(difluoromethyl)-5,5-difluoro-3b,4,4a,5-tetrahydro-1H-cyclopropa[3,4]cyclopenta[1,2-c]pyrazol-1-yl)acetamide], the half-maximal cytotoxic concentration (CC50) at 4 day in data set [1] is above 1000 nM. Further, the EC50 in data set [2] turned out to be 0.34 nM.

As to `Cc1cc(C)nc(-c2ccc3c(=O)n(-c4ccc(Cl)c5c(NS(C)(=O)=O)nn(CC(F)F)c45)c([C@H](Cc4cc(F)cc(F)c4)NC(=O)Cn4nc(C(F)F)c5c4C(F)(F)[C@@H]4C[C@H]54)nc3c2)n1` (atropisomer, axis not shown; (aR)) [Example 128, N-((S)-1-(3-(4-chloro-1-(2,2-difluoroethyl)-3-(methylsulfonamido)-1H-indazol-7-yl)-7-(4,6-dimethylpyrimidin-2-yl)-4-oxo-3,4-dihydroquinazolin-2-yl)-2-(3,5-difluorophenyl)ethyl)-2-((3bS,4aR)-3-(difluoromethyl)-5,5-difluoro-3b,4,4a,5-tetrahydro-1H-cyclopropa[3,4]cyclopenta[1,2-c]pyrazol-1-yl)acetamide], in data set [1], the CC50 at 4 day is above 500 nM. Besides, the EC50 in data set [2] came to 0.069 nM.

On to `COc1ccc(-c2ccc3c(=O)n(-c4ccc(Cl)c5c(NS(C)(=O)=O)nn(C)c45)c([C@H](Cc4cc(F)cc(F)c4)NC(=O)Cn4nc(C(F)F)c5c4C(F)(F)[C@@H]4C[C@H]54)nc3c2)cc1` [Example 156, N-((S)-1-(3-(4-chloro-1-methyl-3-(methylsulfonamido)-1H-indazol-7-yl)-7-(4-methoxyphenyl)-4-oxo-3,4-dihydroquinazolin-2-yl)-2-(3,5-difluorophenyl)ethyl)-2-((3bS,4aR)-3-(difluoromethyl)-5,5-difluoro-3b,4,4a,5-tetrahydro-1H-cyclopropa[3,4]cyclopenta[1,2-c]pyrazol-1-yl)acetamide], for which the CC50 at 4 day in data set [1] was above 500 nM. Besides, the half-maximal effective concentration (EC50) in data set [2] is 0.79 nM.

`O=C(Cn1ccc(C2CC2)n1)N[C@@H](Cc1cc(F)cc(F)c1)c1nc2cc(-c3cccc(F)c3F)ccc2c(=O)n1-c1ccc(S(=O)(=O)N2CCOCC2)cc1` [Example 74, (S)-2-(3-cyclopropyl-1H-pyrazol-1-yl)-N-(2-(3,5-difluorophenyl)-1-(7-(2,3-difluorophenyl)-3-(4-(morpholinosulfonyl)phenyl)-4-oxo-3,4-dihydroquinazolin-2-yl)ethyl)acetamide] showed a CC50 at 4 day in data set [1] above 1000 nM. Moreover, the concentration for a half-maximal effect (EC50) in data set [2] is 16 nM.

In data set [1], `Cn1nc(NS(C)(=O)=O)c2c(Cl)ccc(-n3c([C@H](Cc4cc(F)cc(F)c4)NC(=O)Cn4nc(C(F)F)c5c4C(F)(F)[C@@H]4C[C@H]54)nc4cc(-c5ccccc5S(C)(=O)=O)ccc4c3=O)c21` (atropisomer, axis not shown; (aR)) [Example 109, N-((S)-1-(3-(4-chloro-1-methyl-3-(methylsulfonamido)-1H-indazol-7-yl)-7-(2-(methylsulfonyl)phenyl)-4-oxo-3,4-dihydroquinazolin-2-yl)-2-(3,5-difluorophenyl)ethyl)-2-((3bS,4aR)-3-(difluoromethyl)-5,5-difluoro-3b,4,4a,5-tetrahydro-1H-cyclopropa[3,4]cyclopenta[1,2-c]pyrazol-1-yl)acetamide] registered a CC50 at 4 day above 1000 nM. The EC50 in data set [2] was found to be 0.11 nM.
